For data set [1], the system named is DENV-2 16681 strain. Put plainly: microbe, parasite or virus in culture. The data set is classed as cell-based, Dengue virus. Particulars: for EC50: DENV-2 16681 eGFP, Vero cells, MOI 0.5, 3 days; for SI: SI=CC50/EC50, DENV-2 antiviral assay.
The nature of data set [2]: in vitro. Conditions: African green monkey.
Where [3] appears, read: Dengue virus, DENV2, Vero, 72 h.

As usually defined, the EC50 is the concentration at which the effect is half-maximal. On to `COc1cc(NC(C(=O)N2CCc3ccc(OC(F)(F)F)cc32)c2ccc(Cl)cc2)cc(OCCC2(C(=O)O)CC2)c1` (racemic) [Compound 3, 1-(2-(3-((1-(4-chlorophenyl)-2-oxo-2-(6-(trifluoromethoxy)indolin-1-yl)ethyl)amino)-5-methoxyphenoxy)ethyl)cyclopropane-1-carboxylic acid], for which, in data set [1] (setting [3]), the EC50 was determined as 0.0005 µM. Also, the SI in data set [1] amounted to 17700. In addition, in data set [2], the CC50 stood at 10 µM.
The like results for `COc1cc(NC(C(=O)N2CCc3ccc(OC(F)(F)F)cc32)c2ccc(Cl)cc2)cc(OCC(C)CC(=O)O)c1` (racemic) [Compound 4, 4-(3-((1-(4-chlorophenyl)-2-oxo-2-(6-(trifluoromethoxy)indolin-1-yl)ethyl)amino)-5-methoxyphenoxy)-3-methylbutanoic acid] were, in that order, 0.00014 µM, 73900 and 10 µM.
As for `COc1cc(NC(C(=O)N2CCc3ccc(OC(F)(F)F)cc32)c2ccc(Cl)cc2)cc(OCC2(CC(=O)O)CC2)c1` (racemic) [Compound 5, 2-(1-((3-((1-(4-chlorophenyl)-2-oxo-2-(6-(trifluoromethoxy)indolin-1-yl)ethyl)amino)-5-methoxyphenoxy)methyl)cyclopropyl)acetic acid], the EC50 in data set [1] (setting [3]) amounted to 0.00092 µM. Further, the SI in data set [1] turned out to be 11300. Moreover, the CC50 in data set [2] was determined as 9.7 µM.
The like results for `COc1cc(NC(C(=O)N2CCc3ccc(OC(F)(F)F)cc32)c2ccc(Cl)cc2)cc(OCC23CC(C(=O)O)(C2)C3)c1` (racemic) [Compound 9, 3-((3-((1-(4-chlorophenyl)-2-oxo-2-(6-(trifluoro-methoxy)indolin-1-yl)ethyl)amino)-5-methoxyphenoxy)methyl)bicyclo[1.1.1]pentane-1-carboxylic acid] were, in that order, 0.0007 µM, 14700 and 9.8 µM.
The like results for `COc1cc(NC(C(=O)N2CCc3ccc(OC(F)(F)F)cc32)c2ccc(Cl)cc2)cc(OCCC(=O)O)c1` (racemic) [Compound 12, 3-(3-((1-(4-chlorophenyl)-2-oxo-2-(6-(trifluoromethoxy)indolin-1-yl)ethyl)amino)-5-methoxyphenoxy)propanoic acid] were, in that order, 0.0011 µM, 9440 and 11 µM.
The like results for `COc1cc(NC(C(=O)N2CCc3ccc(OC(F)(F)F)cc32)c2ccc(Cl)cc2)cc(OCCCCC(=O)O)c1` (racemic) [Compound 13, 5-(3-((1-(4-chlorophenyl)-2-oxo-2-(6-(trifluoromethoxy)-indolin-1-yl)ethyl)amino)-5-methoxyphenoxy)pentanoic acid] were, in that order, 0.00025 µM, 38100 and 12 µM.
With `COc1cc(CCCCC(=O)O)cc(NC(C(=O)N2CCc3ccc(OC(F)(F)F)cc32)c2ccc(Cl)cc2)c1` (racemic) [Compound 14, 5-(3-((1-(4-chlorophenyl)-2-oxo-2-(6-(trifluoromethoxy)indolin-1-yl)ethyl)amino)-5-methoxyphenyl)pentanoic acid], a half-maximal response in data set [1] (setting [3]) (EC50) required 0.00023 µM. The SI in data set [1] is recorded as 50200. In data set [2], this compound registered a CC50 of 9.6 µM.
The like results for `COc1cc(CCCC(=O)O)cc(NC(C(=O)N2CCc3ccc(OC(F)(F)F)cc32)c2ccc(Cl)cc2)c1` (racemic) [Compound 15, 4-(3-((1-(4-chlorophenyl)-2-oxo-2-(6-(trifluoromethoxy)indolin-1-yl)ethyl)amino)-5-methoxyphenyl)butanoic acid] were, in that order, 0.00042 µM, 25500 and 8.3 µM.
The like results for `COc1cc(COCCC(=O)O)cc(NC(C(=O)N2CCc3ccc(OC(F)(F)F)cc32)c2ccc(Cl)cc2)c1` (racemic) [Compound 16, 3-((3-((1-(4-chlorophenyl)-2-oxo-2-(6-(trifluoromethoxy)indolin-1-yl)ethyl)amino)-5-methoxybenzyl)oxy)propanoic acid] were, in that order, 0.00033 µM, 56100 and 16 µM.
The like results for `COc1cc(NC(C(=O)N2CCc3ccc(OC(F)(F)F)cc32)c2ccc(Cl)cc2OC)cc(OCCC(C)C(=O)O)c1` (racemic) [Compound 17, 4-(3-((1-(4-chloro-2-methoxyphenyl)-2-oxo-2-(6-(trifluoromethoxy)indolin-1-yl)ethyl)amino)-5-methoxyphenoxy)-2-methylbutanoic acid] were, in that order, 0.00018 µM, 100043 and 13 µM.
`COc1cc(NC(C(=O)N2CCc3ccc(OC(F)(F)F)cc32)c2ccc(Cl)cc2OC)cc(OCCC(C)(C)C(=O)O)c1` (racemic) [Compound 18, 4-(3-((1-(4-chloro-2-methoxyphenyl)-2-oxo-2-(6-(trifluoromethoxy)indolin-1-yl)ethyl)amino)-5-methoxyphenoxy)-2,2-dimethylbutanoic acid] had an EC50 in data set [1] (setting [3]) of 0.00049 µM. The same compound gave an SI in data set [1] of 26100. In data set [2], this compound yielded a CC50 of 11 µM.
Taken in the same sequence, the figures for `COc1cc(NC(C(=O)N2CCc3cc(OC)c(C(F)(F)F)cc32)c2ccc(Cl)cc2)cc(OCCC(C)(C)C(=O)O)c1` (racemic) [Compound 21, 4-(3-((1-(4-chlorophenyl)-2-(5-methoxy-6-(trifluoromethyl)indolin-1-yl)-2-oxoethyl)amino)-5-methoxyphenoxy)-2,2-dimethylbutanoic acid] were 0.0011 µM, 11000 and 15 µM.
Take `COc1cc(NC(C(=O)N2CCc3ccc(OC(F)(F)F)cc32)c2ccc(Cl)cc2)cc(OCC(C)CC(=O)O)c1` (single isomer, unassigned) [Compound 4A]: in data set [1], the response was half-maximal at 0.0029 µM (EC50) and the SI worked out at 3090. For the same compound, the CC50 in data set [2] came out at 9 µM.
The like results for `COc1cc(NC(C(=O)N2CCc3ccc(OC(F)(F)F)cc32)c2ccc(Cl)cc2)cc(OC23CC(C(=O)O)(C2)C3)c1` (single isomer, unassigned) [Compound 9A] were, in that order, 0.09 µM, 125 and 11 µM.
In data set [1], `COc1cc(NC(C(=O)N2CCc3ccc(OC(F)(F)F)cc32)c2ccc(Cl)cc2)cc(OCCC(=O)O)c1` (single isomer, unassigned) [Compound 12A] had an EC50 of 0.038 µM and an SI of 267. Besides, in data set [2], the CC50 is 10 µM.
Turning to `COc1cc(NC(C(=O)N2CCc3ccc(OC(F)(F)F)cc32)c2ccc(Cl)cc2)cc(OCCCCC(=O)O)c1` (single isomer, unassigned) [Compound 13A], in data set [1], the EC50 is 0.0014 µM and the SI amounted to 5720. Further, the CC50 in data set [2] was 9.1 µM.
As to `COc1cc(CCCC(=O)O)cc(NC(C(=O)N2CCc3ccc(OC(F)(F)F)cc32)c2ccc(Cl)cc2)c1` (single isomer, unassigned) [Compound 15A], in data set [1], the EC50 was found to be 0.049 µM and the SI was 171. Besides, the CC50 in data set [2] worked out at 8.4 µM.
In data set [1], `COc1cc(NC(C(=O)N2CCc3ccc(OC(F)(F)F)cc32)c2ccc(Cl)cc2OC)cc(OCCC(C)C(=O)O)c1` (single isomer, unassigned) [Compound 17A] showed an EC50 of 0.076 µM and an SI of 147. Also, the CC50 in data set [2] was found to be 11 µM.
In data set [1], `COc1cc(NC(C(=O)N2CCc3ccc(OC(F)(F)F)cc32)c2ccc(Cl)cc2OC)cc(OCCC(C)(C)C(=O)O)c1` (single isomer, unassigned) [Compound 18A] came in with a concentration for a half-maximal effect (EC50) of 0.0099 µM and an SI of 1160. The compound also gave a CC50 in data set [2] of 12 µM.
Taken in the same sequence, the figures for `COc1cc(NC(C(=O)N2CCc3cc(OC)c(C(F)(F)F)cc32)c2ccc(Cl)cc2)cc(OCCC(C)C(=O)O)c1` (single isomer, unassigned) [Compound 20A] were 0.44 µM, 27 and 12 µM.
The like results for `COc1cc(NC(C(=O)N2CCc3cc(OC)c(C(F)(F)F)cc32)c2ccc(Cl)cc2)cc(OCCC(C)(C)C(=O)O)c1` (single isomer, unassigned) [Compound 21A] were, in that order, 0.016 µM, 687 and 11 µM.
Taken in the same sequence, the figures for `COc1cc(NC(C(=O)N2CCc3cc(F)c(OC(F)(F)F)cc32)c2ccc(Cl)cc2)cc(OCC2CC2C(=O)O)c1` (single isomer, unassigned) [Compound 26A, (1R*,2R*)-2-((3-((1-(4-chlorophenyl)-2-(5-fluoro-6-(trifluoromethoxy)indolin-1-yl)-2-oxoethyl)amino)-5-methoxyphenoxy)methyl)-cyclopropanecarboxylic Acid] were 0.0001 µM, over 12200 and 14 µM.
Regarding `COc1cc(NC2CC(C(=O)O)C2)cc(NC(C(=O)N2CCc3ccc(OC(F)(F)F)cc32)c2ccc(Cl)cc2)c1` (single isomer, unassigned) [Compound 33A], in data set [1], it took 0.013 µM to reach a half-maximal effect (EC50) and the SI stood at 1110. This compound also had a CC50 in data set [2] of 17 µM.
In data set [1], `COc1cc(NC(C(=O)N2CCc3ccc(OC(F)(F)F)cc32)c2ccc(Cl)cc2)cc(OCC2CC2C(=O)O)c1` (stereo not drawn) [Compound 6AA] displayed an EC50 of 0.00074 µM and an SI of 8870. For the same compound, in data set [2], the CC50 turned out to be 8.3 µM.
Taken in the same sequence, the figures for `COc1cc(NC(C(=O)N2CCc3ccc(OC(F)(F)F)cc32)c2ccc(Cl)cc2)cc(OC2CC(C(=O)O)C2)c1` (stereo not drawn) [Compound 7] were 0.00049 µM, 14600 and 12 µM.
The like results for `COc1cc(NC(C(=O)N2CCc3ccc(OC(F)(F)F)cc32)c2ccc(Cl)cc2)cc(OCC2CC(C(=O)O)C2)c1` (stereo not drawn) [Compound 10] were, in that order, 0.00027 µM, 44900 and 12 µM.
The like results for `COc1cc(NC(C(=O)N2CCc3ccc(OC(F)(F)F)cc32)c2ccc(Cl)cc2OC)cc(OCC2CC2C(=O)O)c1` (stereo not drawn) [Compound 19AA] were, in that order, 0.01 µM, 1030 and 11 µM.

Source of the values: patent US11407715B2, “Substituted indoline derivatives as dengue viral replication inhibitors” (JANSSEN PHARMACEUTICALS, INC., priority 2017, dated 2022).
